Test results as given in patent US6984520B1, “Bioassay for thyroid stimulating antibodies” (University of Wales College of Medicine, priority 1997, dated 2006).

What was measured:
human TSH-R [1] = target: T1, human TSH-R (Homo sapiens, UniProt P16473); assay: luminescent bioassay: light output of lulu 1 cells (JP09 CHO cells expressing human TSH-R, transfected with cAMP-luciferase); assay type: cell-based; conditions: concentration as in row: TSH 1 mU/ml, TSAb (90/672) 10 mlU/ml, Forskolin 10^-5M
T1 construct: a pSVL vector containing the coding region of human TSH-R; expressed in transfected cells; host or cells: CHO-K1 clone JP09 (pSVL-hTSHR), further transfected with cAMP-luciferase to give lulu 1 cells
Experimental: Culture medium for the cells was RPMI; 10% foetal calf serum (FCS); 1% glutamine; 1% pyruvate; 2% penicillin/streptomycin (and 2.5 μg/ml puromycin, when amplifying cells for assay). 96 well plates were seeded with 5×10^4 cells prepared according to Example 1 and cultured overnight (approximately 16 hours) at 37° C. in a water-saturated incubator. They were then cultured for a second night in medium containing 10% charcoal stripped calf serum instead of FCS (available from Gibco). Basal light output was measured, in triplicate wells, in the presence of 100 μl of the medium containing 10% charcoal stripped serum. […] The final result was expressed as relative light units (RLU) obtained by the ratio of standard:basal or test:basal.
Following the incubation period, supernatants were removed from the wells and the cells are washed twice in phosphate buffered saline. Light output was measured using a commercially-available kit from the Promega Corporation, no. […]
The selected clones were cultured overnight in medium with 10% charcoal-stripped calf serum (Sigma) in place of FCS, followed by 4 hours' incubation with varying concentrations of bovine TSH. Light output was measured by luciferase reporter assay (Promega) in a Berthold luminometer. Results were calculated as the ratio of light output in the presence of TSH:light output in the absence of TSH and expressed as relative light units (RLUs). […]

human TSH-R [2] = target: T1, human TSH-R; assay: traditional bioassay: cAMP released into culture medium of lulu 1 cells, measured by RIA; assay type: cell-based; conditions: NaCl-free Hank's medium, 2 mM IBMX, TSH 1 mU/ml, TSAb (90/672) 10 mlU/ml
Experimental: 44 of the GD sera described above, (35 TBII (TSH-R) positive) and the TSAb standard, were also assayed in a traditional bioassay in which CAMP released into the culture medium was measured by RIA. Lulu 1 were seeded in 96 well plates and the assay was performed in 100 μl/well NaCl-free Hank's medium, containing 2 mM IBMX and 10 μl individual GD or pooled euthyroid serum. CAMP was measured by the CAMP [^3H] assay system (Amersham) as described by Ludgate et al in Exp Clin Endo 100 73–4.

T1 sequence (P16473 21-764): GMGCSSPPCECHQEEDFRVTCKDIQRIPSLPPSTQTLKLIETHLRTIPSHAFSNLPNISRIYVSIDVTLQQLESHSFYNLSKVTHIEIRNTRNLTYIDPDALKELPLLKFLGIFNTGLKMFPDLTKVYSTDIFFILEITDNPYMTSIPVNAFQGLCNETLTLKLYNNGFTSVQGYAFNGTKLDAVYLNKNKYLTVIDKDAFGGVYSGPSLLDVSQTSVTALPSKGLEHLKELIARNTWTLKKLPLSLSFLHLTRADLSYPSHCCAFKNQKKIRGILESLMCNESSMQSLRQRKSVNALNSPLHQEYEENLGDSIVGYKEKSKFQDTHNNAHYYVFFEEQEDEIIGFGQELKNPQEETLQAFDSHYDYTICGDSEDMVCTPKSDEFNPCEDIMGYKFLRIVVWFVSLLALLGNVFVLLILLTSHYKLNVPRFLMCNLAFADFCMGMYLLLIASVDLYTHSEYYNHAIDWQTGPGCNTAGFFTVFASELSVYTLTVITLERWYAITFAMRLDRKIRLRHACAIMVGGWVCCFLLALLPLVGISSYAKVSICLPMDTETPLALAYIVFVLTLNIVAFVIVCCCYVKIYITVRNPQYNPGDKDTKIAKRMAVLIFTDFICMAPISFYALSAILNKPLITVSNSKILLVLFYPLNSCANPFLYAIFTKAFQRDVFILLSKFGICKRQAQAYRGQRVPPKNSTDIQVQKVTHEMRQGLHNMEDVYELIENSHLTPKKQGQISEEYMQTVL

## thyrotropin [TSH]
Human TSH-R [1]
  RLUs (mean luminometer readings (n=3) with background light emission subtracted): 1293 RLUs
Human TSH-R [2]
  pmole cAMP (mean, n=2): 9.4 pmol
